# Where “and” joins values, the source holds several entries; their conditions need not be identical. Identical values can stand only once. Toxic doses and inconclusive results are not listed.
# System: P388 leukemia ip, CD2F1 mice, survival T/C
# Assay: NCI In Vivo Anticancer Drug Screen. Data for tumor model P388 Leukemia (intraperitoneal) in CD2F1 (CDF1) mice
# Settings: endpoint: median survival time, higher = longer survival
# Procedure, shortened: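 Mice carrying the transplanted tumor received test compound or vehicle. Survival was recorded in each group, and the value is the treated-group measurement divided by that of the vehicle-treated control group.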
# [1] = dose: 60.0 mg/kg/injection, schedule: Q01DX005 (ip), vehicle: saline with Tween-80
# [2] = dose: 120.0 mg/kg/injection, schedule: Q01DX005 (ip), vehicle: saline with Tween-80
# [3] = dose: 240.0 mg/kg/injection, schedule: Q01DX005 (ip), vehicle: saline with Tween-80
# [4] = dose: 50.0 mg/kg/injection, schedule: Q01DX009 (ip), vehicle: saline with Tween-80
# [5] = dose: 100.0 mg/kg/injection, schedule: Q01DX009 (ip), vehicle: saline with Tween-80
# [6] = dose: 200.0 mg/kg/injection, schedule: Q01DX009 (ip), vehicle: saline with Tween-80
# [7] = dose: 60.0 mg/kg/injection, schedule: Q01DX005 (ip), vehicle: Klucel (hydroxypropylcellulose) (HPC)
# [8] = dose: 120.0 mg/kg/injection, schedule: Q01DX005 (ip), vehicle: Klucel (hydroxypropylcellulose) (HPC)
# [9] = dose: 240.0 mg/kg/injection, schedule: Q01DX005 (ip), vehicle: Klucel (hydroxypropylcellulose) (HPC)
# [10] = dose: 400.0 mg/kg/injection, schedule: Q01DX009 (ip), vehicle: saline with Tween-80
# [11] = dose: 100.0 mg/kg/injection, schedule: Q04DX003 (ip), vehicle: saline with Tween-80
structure (smiles),measurement,setting,value
O=C(C=C(C(F)(F)Cl)C(F)(F)Cl)c1cccs1,T/C,"dose: 2.5 mg/kg/injection, schedule: Q04DX003 (ip), vehicle: saline",95 % of control
same,T/C,"dose: 5.0 mg/kg/injection, schedule: Q04DX003 (ip), vehicle: saline",100 % of control
same,T/C,"dose: 10.0 mg/kg/injection, schedule: Q04DX003 (ip), vehicle: saline",100 % of control
Cc1oc(-c2cccc(F)c2)nc1C(N)=O,T/C,"dose: 50.0 mg/kg/injection, schedule: Q01DX009 (ip), vehicle: Klucel (hydroxypropylcellulose) (HPC)",102 % of control
same,T/C,"dose: 100.0 mg/kg/injection, schedule: Q01DX009 (ip), vehicle: Klucel (hydroxypropylcellulose) (HPC)",102 % of control
same,T/C,"dose: 200.0 mg/kg/injection, schedule: Q01DX009 (ip), vehicle: Klucel (hydroxypropylcellulose) (HPC)",100 % of control
COC1=CC(=O)C(OC)=C(c2c[nH]c3ccccc23)C1=O,T/C,[1],95 % of control
same,T/C,[2],87 % of control
same,T/C,[3],97 % of control
CN(C)c1cc(=O)c2ccc3ccccc3c2o1,T/C,[4],96 % of control
same,T/C,[5],96 % of control
same,T/C,[6],93 % of control
O=c1nc(N2CCCC2)oc2cc3ccccc3cc12,T/C,[7],95 % of control
same,T/C,[8],98 % of control
same,T/C,[9],95 % of control
CCC(=O)Oc1ccc[nH]c1=O,T/C,"dose: 25.0 mg/kg/injection, schedule: Q01DX009 (ip), vehicle: saline with Tween-80",101 % of control
same,T/C,"dose: 25.0 mg/kg/injection, schedule: Q01DX009 (ip), vehicle: saline",105 % of control and 92 % of control
same,T/C,[4],100 % of control
same,T/C,"dose: 50.0 mg/kg/injection, schedule: Q01DX009 (ip), vehicle: saline",100 % of control and 110 % of control
same,T/C,[5],100 % of control
same,T/C,"dose: 100.0 mg/kg/injection, schedule: Q01DX009 (ip), vehicle: saline",103 % of control and 94 % of control
same,T/C,[6],112 % of control and 121 % of control
same,T/C,"dose: 300.0 mg/kg/injection, schedule: Q01DX009 (ip), vehicle: saline",115 % of control and 116 % of control
same,T/C,"dose: 400.0 mg/kg/injection, schedule: Q01DX009 (ip), vehicle: Klucel (hydroxypropylcellulose) (HPC)",123 % of control
same,T/C,[10],122 % of control
same,T/C,"dose: 500.0 mg/kg/injection, schedule: Q01DX009 (ip), vehicle: Klucel (hydroxypropylcellulose) (HPC)",154 % of control
same,T/C,"dose: 600.0 mg/kg/injection, schedule: Q01DX009 (ip), vehicle: saline with Tween-80",122 % of control
same,T/C,"dose: 600.0 mg/kg/injection, schedule: Q01DX009 (ip), vehicle: saline",124 % of control
Cc1ccc(S(=O)(=O)C2C(C)(C)C2(Sc2ccccc2)[Si](C)(C)C)cc1 (stereo not drawn),T/C,[7],102 % of control
same,T/C,[8],106 % of control
same,T/C,[9],92 % of control
[N-]=[N+]=NCCOCn1ccc(=O)[nH]c1=O,T/C,"dose: 60.0 mg/kg/injection, schedule: Q01DX005 (ip), vehicle: saline",103 % of control
same,T/C,"dose: 120.0 mg/kg/injection, schedule: Q01DX005 (ip), vehicle: saline",108 % of control
same,T/C,"dose: 240.0 mg/kg/injection, schedule: Q01DX005 (ip), vehicle: saline",100 % of control
FC(F)(F)C1(C(F)(F)F)O[Si]2(OC(C(F)(F)F)(C(F)(F)F)c3ccccc32)c2ccccc21,T/C,"dose: 25.0 mg/kg/injection, schedule: Q01DX005 (ip), vehicle: distilled water + Tween-80 + alcohol",97 % of control
same,T/C,"dose: 25.0 mg/kg/injection, schedule: Q01DX005 (ip), vehicle: saline with Tween-80",105 % of control
same,T/C,"dose: 50.0 mg/kg/injection, schedule: Q01DX005 (ip), vehicle: distilled water + Tween-80 + alcohol",96 % of control
same,T/C,"dose: 50.0 mg/kg/injection, schedule: Q01DX005 (ip), vehicle: saline with Tween-80",103 % of control
same,T/C,"dose: 100.0 mg/kg/injection, schedule: Q01DX005 (ip), vehicle: saline with Tween-80",105 % of control
ClCC(CCl)(CCl)CCl,T/C,"dose: 50.0 mg/kg/injection, schedule: Q04DX003 (ip), vehicle: saline with Tween-80",105 % of control
same,T/C,[11],98 % of control
COc1cccc2c1C(=O)c1c(O)c3c(c(O)c1C2=O)C[C@@](O)(C(C)O)C[C@@H]3OC1CC(N2CCCCC2)C(O)C(C)O1 (stereo partly drawn),T/C,"dose: 2.5 mg/kg/injection, schedule: Q04DX003 (ip), vehicle: water",120 % of control
same,T/C,"dose: 5.0 mg/kg/injection, schedule: Q04DX003 (ip), vehicle: water",162 % of control
same,T/C,"dose: 10.0 mg/kg/injection, schedule: Q04DX003 (ip), vehicle: water",118 % of control
same,T/C,"dose: 20.0 mg/kg/injection, schedule: Q04DX003 (ip), vehicle: water",110 % of control
same,T/C,"dose: 40.0 mg/kg/injection, schedule: Q04DX003 (ip), vehicle: water",96 % of control
C/C=C1\CN2CCC34c5ccccc5N5C(C6C7CC8N(CCC89c8cccc(O)c8N(C(C)=O)C69)C/C7=C\C)OCC(C1CC23)C54 (stereo not drawn),T/C,"dose: 11.25 mg/kg/injection, schedule: Q01DX009 (ip), vehicle: saline with Tween-80",106 % of control
same,T/C,"dose: 22.5 mg/kg/injection, schedule: Q01DX009 (ip), vehicle: saline with Tween-80",105 % of control
same,T/C,"dose: 45.0 mg/kg/injection, schedule: Q01DX009 (ip), vehicle: saline with Tween-80",106 % of control
same,T/C,"dose: 90.0 mg/kg/injection, schedule: Q01DX009 (ip), vehicle: saline with Tween-80",104 % of control
CC1OCN2CCCCC12 (stereo not drawn),T/C,"dose: 25.0 mg/kg/injection, schedule: Q01DX005 (ip), vehicle: saline",107 % of control
same,T/C,"dose: 50.0 mg/kg/injection, schedule: Q01DX005 (ip), vehicle: saline",118 % of control
O=C(Nc1ccc2c(c1)Cc1cccc(NC(=O)C(Cl)Cl)c1-2)C(Cl)Cl,T/C,[5],90 % of control
same,T/C,[11],91 % of control
same,T/C,[6],95 % of control
same,T/C,"dose: 200.0 mg/kg/injection, schedule: Q04DX003 (ip), vehicle: saline with Tween-80",91 % of control
same,T/C,[10],100 % of control
same,T/C,"dose: 400.0 mg/kg/injection, schedule: Q04DX003 (ip), vehicle: saline with Tween-80",87 % of control
OCC1OC(C2N(c3ccccc3)CCN2c2ccccc2)C(O)C1O (stereo not drawn),T/C,"dose: 12.5 mg/kg/injection, schedule: Q01DX009 (ip), vehicle: distilled water + Tween-80",102 % of control
same,T/C,"dose: 25.0 mg/kg/injection, schedule: Q01DX009 (ip), vehicle: distilled water + Tween-80",100 % of control
same,T/C,"dose: 50.0 mg/kg/injection, schedule: Q01DX009 (ip), vehicle: distilled water + Tween-80",98 % of control
same,T/C,"dose: 100.0 mg/kg/injection, schedule: Q01DX009 (ip), vehicle: distilled water + Tween-80",90 % of control
same,T/C,"dose: 200.0 mg/kg/injection, schedule: Q01DX009 (ip), vehicle: distilled water + Tween-80",93 % of control
CC(C)(C)c1ccc(/C=N/NC(=O)c2cccnc2)cc1,T/C,"dose: 50.0 mg/kg/injection, schedule: Q01DX005 (ip), vehicle: Klucel (hydroxypropylcellulose) (HPC)",98 % of control
same,T/C,"dose: 100.0 mg/kg/injection, schedule: Q01DX005 (ip), vehicle: Klucel (hydroxypropylcellulose) (HPC)",103 % of control
O=C(O)C(c1ccccc1)c1cccc(C(C(=O)O)c2ccccc2)n1 (stereo not drawn),T/C,[1],105 % of control
same,T/C,[2],100 % of control
same,T/C,[3],102 % of control
CC(C)C(C(O)c1ccccc1)[N+](=O)[O-] (stereo not drawn),T/C,[5],104 % of control
same,T/C,[6],95 % of control
same,T/C,[10],86 % of control
COC(=O)c1cc(-c2ccc(N)cc2)c2c(=O)n(-c3ccccc3)[nH]c2n1,T/C,[1],100 % of control
same,T/C,[2],91 % of control
same,T/C,[3],87 % of control
C=C1C2CCC3C4(C)CCCC(C)(C(=O)O)C4CCC3(C2)C1O (stereo not drawn),T/C,"dose: 15.0 mg/kg/injection, schedule: Q01DX005 (ip), vehicle: Klucel (hydroxypropylcellulose) (HPC)",100 % of control
same,T/C,"dose: 30.0 mg/kg/injection, schedule: Q01DX005 (ip), vehicle: Klucel (hydroxypropylcellulose) (HPC)",100 % of control
same,T/C,[7],99 % of control
same,T/C,[8],100 % of control

# Source: PubChem BioAssay AID330 (DTP/NCI, 2004)
